Source: US8679842B2, “Method for increasing the pool of Ngn3+ endocrine progenitor cells and pancreatic endocrine cell mass” (Assistance Publique—Hopitaux de Paris, priority 2009, dated 2014)
Entries after “also recorded” stand apart in the source; their conditions may differ.

Key:
[1] = system: E13.5 Rat embryonic pancreases; experiment: E13.5 rat embryonic pancreas organ culture: growth, morphology and toxicity (Hoechst staining); format: cell-based
From the text: (§1) Pregnant Wistar rats were purchased from the Janvier Breeding centre (CERJ, LeGenet, France). The first day postcoitum was taken as embryonic day (E) 0.5. Pregnant rats were killed with CO2 asphyxiation according to guidelines issued by the French Animal Care Committee. Dorsal pancreatic buds from E13.5 rat embryos were dissected as described previously (Miralles et al., 1998). Briefly, the stomach, pancreas and a small portion of the intestine were dissected together, and then the pancreas primordium was isolated.
(§2) Dorsal pancreatic rudiments were cultured on 0.45 μm filters (Millipore) at the air-medium interface in a 35 mm sterile Petri dishes containing 2 ml RPMI-1640 medium (Invitrogen) supplemented with 100 U/ml penicillin, 100 μg/ml streptomycin, 10 mmol/L HEPES, 2 mmol/L L-glutamine, 1× non-essential aminoacids (Invitrogen) and 10% heat-inactivated fetal calf serum (HyClone, Logan, Utah, USA). Glibenclamide (MP Biomedical) and nifedipine (Sigma), used at the indicated concentrations, were first dissolved as concentrated solutions in dimethylsulfoxide DMSO (Sigma), the final concentration of DMSO in the culture medium was less than 0.5% (vol/vol). The culture medium was changed every day. Glibenclamide and nifedipine were added to the media daily. The cultures were incubated at 37° C. in a humidified atmosphere composed of 95% air and 5% CO2. At the end of the culture period, the pancreases were photographed, and fixed as described below or harvested for RNA extraction
(§3) Quantification—To quantify the surface area of insulin, glucagon, PCSK1/3, CPA and amylase-expressing cells, all sections of each pancreatic rudiment were digitized. Alternate sections were examined to avoid counting the same cell twice. The surface of insulin, glucagon, PCSK1/3, CPA, amylase, and Hoechst stainings were quantified using Iplab (Scanalytics). The stained areas were summed to obtain the total surface area per rudiment in mm^2. To measure proliferation of the early progenitors expressing PDX1, we counted the frequency of BrdU positive progenitors expressing PDX1 among 3000 early progenitors expressing PDX1 per rudiment. To quantify the absolute number of NGN3-expressing cells, pancreatic rudiments were sectioned and all sections were stained with an anti-NGN3 antibody. Positive cells were counted on all sections of each pancreatic rudiment. A minimum of three rudiments was analyzed per condition.
Using the in vitro model as described above (E13.5 Rat embryonic pancreases cultured at the air/medium interface on a floating filter), we examined the effects of increased concentrations of the sulphonylurea glibenclamide (an inhibitor of KATP channels) on pancreas development. […] Under both conditions, the epithelium grew rapidly, spread into the mesenchyme, and developed lobules. There is no difference in apoptosis in pancreases cultured 7 days without or with 10 and 100 μM glibenclamide as shown by the Hoechst staining of the nuclei (FIG. 1B).

[2] = system: E13.5 Rat embryonic pancreases; experiment: Immunohistochemistry and quantification of stained surface area / cell number in cultured embryonic pancreases; format: cell-based
From the text: as §1, §2
Immunochemistry—The pancreatic rudiments were fixed in 10% formalin, pre-embedded in agarose gel (4% of type VII low-gelling-temperature agarose (Sigma) in H2O) and embedded in paraffin. Immunohistochemistry was performed on 4-μm paraffin sections as previously described (Duvillie et al., 2006). The primary antibodies were mouse anti insulin (1/2000; Sigma), rabbit anti-glucagon (1/1000; Diasorin), rabbit anti-amylase (1/300; Sigma), rabbit anti-carboxypeptidase A (1/600; Biogenesis, Kidlington, Oxford, UK), rabbit anti-PDX1 (1/1000) (Duvillie et al., 2003) mouse anti-BrdUrd5 (1/2; Amersham Biosciences, Buckingham, UK), rabbit anti-PCK1/3, rabbit anti-Ngn3 (1/100, Guillemain et al., 2007), rabbit anti-KIR6.2 and anti-SUR1 (1/100, Santa Cruz). The fluorescent secondary antibodies were fluorescein anti-rabbit antibody (1/200; Jackson Immunoresearch, Baltimore, Md., USA), fluorescein goat anti-rabbit Alexa Fluor 488 (1/400; Invitrogen) and Texas red anti-mouse antibody (1/200; Jackson). Nuclei were stained in blue with Hoechst 33342 (0.3 μg/ml; Invitrogen). Ngn3 detection was performed as previously described (Guillemain et al., 2007) using the Vectastain elite ABC kit (Vector laboratories).
as §3

[3] = system: E13.5 Rat embryonic pancreases; experiment: Real-time PCR of gene expression in cultured embryonic pancreases; format: cell-based
From the text: as §1, §2
Total RNA was isolated from pools of at least three pancreases using the Qiagen RNeasy Microkit (Qiagen, Courtaboeuf, France) and reverse transcribed using Superscript reagents (Invitrogen). Real-time PCR was performed with the 7300 Fast real-time PCR system (Applied Bio system) using either Taqman universal PCR universal PCR master mix or SYBR green PCR master mix (Applied Biosystem) with primers and labelled probes specific for each gene. Peptidylpropyl isomerase A/Cyclophilin A was used as endogenous control and E16.5 pancreas cDNA as calibrator sample. The data were analyzed by comparative cycle threshold method (Livak et al., 1997) and presented as the fold change in gene expression. At least three pools of explants were analysed by condition.

[4] = system: early progenitors expressing PDX1; experiment: BrdU incorporation: proliferation of early PDX1 progenitors in cultured embryonic pancreases; format: cell-based, rat; settings: 100 μM; 24 h culture, BrdU during last hour (FIG. 3D); control 31.24%±2.8%
Experimental: as §2, with “Glibenclamide and nifedipine were added to the media daily. The cultures were incubated at 37° C. in a humidified atmosphere composed of 95% air and 5% CO2. At the end of the culture period, the pancreases were photographed, and fixed as described below or harvested for RNA extraction” left out
as §3, with “Alternate sections were examined to avoid counting the same cell twice.” left out, “The stained areas were summed to obtain the total surface area per rudiment in mm^2.” left out, “A minimum of three rudiments was analyzed per condition.” left out

COc1ccc(Cl)cc1C(=O)NCCc1ccc(S(=O)(=O)NC(=O)NC2CCCCC2)cc1 [glibenclamide]
pancreatic growth vs control ([1]; 10 nM, 100 nM, 1, 10 or 100 μM, 7 days of culture (FIG. 1A)): similar | branching of the epithelium ([1]; 100 μM (FIG. 1A)): more branched | apoptosis (Hoechst staining of the nuclei) vs control ([1]; 10 and 100 μM, 7 days (FIG. 1B)): no difference | toxicity by overall size of pancreases (Hoechst surface area) ([1]; 10 or 100 μM, 7 days (FIG. 1C)): lack of glibenclamide toxicity | pycnotic nuclei (Hoechst staining) ([1]; 7 days, indicated concentrations (FIG. 1B)): lack of pycnotic nuclei | number of NGN3+ cells vs control ([2]; 100 μM, 5 days of culture (FIG. 3B, 3C)): threefold higher; also recorded: increased number of NGN3 positive nuclei | surface area occupied by PCSK1/3 staining in PDX-1+ cells vs control ([2]; 100 μM, 7 days (FIG. 2D)): similar | increase of the number of glucagon-expressing cells ([2]; 100 μM, 7 days (FIG. 2E)): 3.5 fold | decrease of surface area occupied by the insulin-cell population ([2]; 7 days of culture, vs control, data not shown): 70% | insulin-positive cells (insulin-staining area) ([2]; Glib 5D pancreases, data not shown): significant increase | insulin-containing cells ([2]; Glib pancreases: glibenclamide during the 14-day culture period, data not shown): less | insulin-expressing cells ([2]; Glib-5D: 100 μM only during first 5 days, D9, D11 or D14 (FIG. 4A)): large number | Pou3F4/Brn4 mRNA level ([3]; 100 μM, D7 (FIG. 2F)): significant increase | Ngn3 expression (mRNA) increase vs control ([3]; 100 μM, after 5 days of culture, p<0.001 (FIG. 3A)): sevenfold | Ngn3 mRNA level vs control ([3]; 100 μM, after the D5 peak (D7), p<0.001 (FIG. 3A)): dramatically higher | insulin expression (mRNA) ([3]; 100 μM, as early as D3 (FIG. 2A)): strongly reduced | Ngn3 expression (mRNA) vs control ([3]; 100 μM, day 1 and 3 (FIG. 3A)): similar | ZnT-8 expression (mRNA) ([3]; 100 μM, over the 7 days of culture (FIG. 2B)): did not affect | MafA expression (mRNA) ([3]; 100 μM, over the 7 days of culture (FIG. 2C)): did not affect | NeuroD1 mRNA level vs control ([3]; D5, data not shown): significantly increased | NeuroD1 mRNA level vs control ([3]; D7, data not shown): reminded enhanced | ZnT-8 expression vs control ([3]; Glib 5D, after 9, 11 and 14 days, p<0.01 (FIG. 4C)): dramatic increase | MafA expression vs control ([3]; Glib 5D, after 9, 11 and 14 days, p<0.01 (FIG. 4D)): dramatic increase | insulin mRNA level vs control ([3]; Glib-5D, D7 (FIG. 4B)): identical | insulin mRNA level increase vs control ([3]; Glib-5D, D9 (FIG. 4B)): threefold | insulin mRNA level increase vs control ([3]; Glib-5D, D11 (FIG. 4B)): twofold | insulin mRNA level increase vs control ([3]; Glib-5D, D14 (FIG. 4B)): threefold | ZnT-8 expression vs control ([3]; Glib-5D, after 7 days of culture (FIG. 4C)): similar | MafA expression vs control ([3]; Glib-5D, after 7 days of culture (FIG. 4D)): similar | NeuroD1 mRNA levels vs control ([3]; after 1 and 3 days of culture, data not shown): similar | increase in somatostatin expression ([3]; after 7 days of culture, data not shown): two-fold | percentage of PDX-1+ cells that incorporate BrdU [4]: 32.60%±4.2%
